The values below come from article PMC10050424, “Structural basis of the substrate recognition and inhibition mechanism of Plasmodium falciparum nucleoside transporter PfENT1” (Nature Communications, 2023).

Molecules are shown by their SMILES. Several values for one entry are separate records, joined by “and”; a condition that tells them apart may be missing. Equal values may be shown once.

The target in one assay is T1, PfENT1 R291A (Plasmodium falciparum, UniProt Q8IDM6, R291A).
T1 construct: expressed in transfected cells; host or cells: S. cerevisiae BY4741, FUI1 deleted, PfENT1 mutant knock-in under the TEF1 promoter
T1 sequence (Q8IDM6 whole entry R291A): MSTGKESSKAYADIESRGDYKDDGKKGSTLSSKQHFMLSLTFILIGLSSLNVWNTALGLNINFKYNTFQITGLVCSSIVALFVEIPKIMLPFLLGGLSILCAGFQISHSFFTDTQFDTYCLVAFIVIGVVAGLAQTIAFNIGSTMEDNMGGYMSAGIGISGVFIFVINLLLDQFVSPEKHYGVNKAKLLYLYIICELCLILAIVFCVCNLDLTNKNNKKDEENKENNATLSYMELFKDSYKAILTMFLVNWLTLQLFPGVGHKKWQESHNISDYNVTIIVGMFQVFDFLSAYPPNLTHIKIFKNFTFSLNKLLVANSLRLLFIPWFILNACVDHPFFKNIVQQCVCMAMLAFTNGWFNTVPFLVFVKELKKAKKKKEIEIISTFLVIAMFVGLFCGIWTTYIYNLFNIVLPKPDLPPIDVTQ
The experiment in a line: Inosine uptake assay, yeast expressing PfENT1 R291A. The assay is classed as cell-based. The settings on record: Fig. 3d, construct R291A. From the text:
Codon-optimized PfENT1 (for expression in yeast) was synthesized by Sangon Biotech. The carboxyl terminus of PfENT1 was HA-tagged through PCR. The TEF1p promoter and PGK1t terminator were amplified from BY4741 genomic DNA. Overlap PCR was applied to generate the gene overexpression cassette of PfENT1 (TEF1p promoter-PfENT1-PGK1t terminator). The two 600-bp homologous arms corresponding to the upstream and downstream regions of the FUI1 gene were amplified from BY4741 genomic DNA. The gene cassette of the ‘TEF1p promoter-PfENT1-PGK1t terminator’ together with the two homologous arms was cloned into the PUC19 plasmid through Gibson assembly, generating the final plasmid PUC19: PfENT1. PfENT1 mutations were generated using point mutation and verified by Sanger sequencing. The spacer targeting the FUI1 gene (5ʹ-[…]-3ʹ) was cloned into the pCas-BsaI plasmid to generate the pCas-FUI1 plasmid as described previously. […]
Cells were grown overnight in YPD medium to mid-log phase and harvested by centrifugation at 3000 × g for 5 min. […] After washing by vacuum filtration with 2 ml ice-cold 2% glucose, the radioactivity retained on the filter was incubated with 1 mL of ULTIMA GOLD scintillation fluid (Perkin Elmer, 77-15311). Counts were measured using a liquid scintillation analyzer (Perkin Elmer, Tri-Carb 5110TR). […]

Another assay deals with T2, PfENT1 mutant R291A (Plasmodium falciparum, UniProt Q8IDM6, R291A).
T2 construct: 10xHis (N); made in house; host or cells: Sf9 insect cells (baculovirus)
T2 sequence (Q8IDM6 whole entry R291A): as above
The experiment in a line: ITC binding to PfENT1 mutant R291A. As for the experimental part:
(§1) For the in vitro binding assay, Sf9 cells were solubilized in lysis buffer containing 2% (w/v) n-dodecyl-β-D-maltopyranoside (DDM, Anatrace) and protease inhibitor cocktail (0.8 μM aprotinin, 2 μM pepstatin, and 5 μg/ml leupeptin) at 4 °C for 2 h. The soluble supernatant was collected via centrifugation and incubated with Ni-NTA resin (QIAGEN) at 4 °C for 1 h. The resin was washed and eluted using lysis buffer containing 0.05% (w/v) DDM and 30 mM/300 mM imidazole. The protein was further purified by size-exclusion chromatography (Superdex 200 Increase 10/300; GE Healthcare) in buffer containing 25 mM MES (pH 6.0), 150 mM NaCl, and 0.05% (w/v) DDM. The peak fractions were pooled and concentrated to 10~50 μM for the nucleoside-binding assay.
(§2) The binding affinity between wild-type and mutant PfENT1 with nucleosides and GSK4 was measured using a Micro-Cal ITC200 (Malvern). All proteins were prepared in 25 mM MES (pH 6.0), 150 mM NaCl, and 0.05% (w/v) DDM. Nucleosides (5~10 mM) and GSK4 (100-200 μM) dissolved in the same buffer were titrated against 20–50 μM PfENT1 proteins at 25 °C. PEAQ-ITC analysis software (MicroCal) was employed to analyze the data. All titrations were repeated three times.

A further assay has as its target T3, PfENT1 (Plasmodium falciparum, UniProt Q8IDM6).
T3 construct: expressed in transfected cells; host or cells: S. cerevisiae BY4741, FUI1 deleted, PfENT1 knock-in under the TEF1 promoter
Description: cell-based. The settings on record: for uptake of inosine: time course, PfENT1 knock-in yeast. In kind it is cell-based. As for the experimental part: The S. cerevisiae strain (ATCC, #201388) BY4741 (MATa his3Δ1 leu2Δ0 met15Δ0 ura3Δ0) was used as the starting yeast strain. Yeast strains were cultured in YPD medium (20 g/L peptone, 10 g/L yeast extract, and 20 g/L dextrose). The antibiotic G418 was supplemented at a concentration of 250 μg/mL to select strains carrying the KanMX marker. E. coli DH5α was used for subcloning.
Codon-optimized PfENT1 (for expression in yeast) was synthesized by Sangon Biotech. The carboxyl terminus of PfENT1 was HA-tagged through PCR. The TEF1p promoter and PGK1t terminator were amplified from BY4741 genomic DNA. Overlap PCR was applied to generate the gene overexpression cassette of PfENT1 (TEF1p promoter-PfENT1-PGK1t terminator). The two 600-bp homologous arms corresponding to the upstream and downstream regions of the FUI1 gene were amplified from BY4741 genomic DNA. The gene cassette of the ‘TEF1p promoter-PfENT1-PGK1t terminator’ together with the two homologous arms was cloned into the PUC19 plasmid through Gibson assembly, generating the final plasmid PUC19: PfENT1. PfENT1 mutations were generated using point mutation and verified by Sanger sequencing. The spacer targeting the FUI1 gene (5ʹ-[…]-3ʹ) was cloned into the pCas-BsaI plasmid to generate the pCas-FUI1 plasmid as described previously.
To obtain fui1Δ and PfENT1 (or its mutations) overexpression in the S. cerevisiae strain, 1 μg pCas-FUI1 plasmid and 15 μg PUC19:PfENT1 were transformed into yeast using the LiAc/ssDNA/PEG method. Then, the strains were plated on a YPD plate supplemented with G418. Clones were screened using PCR and finally verified through Sanger sequencing.
Cells were grown overnight in YPD medium to mid-log phase and harvested by centrifugation at 3000 × g for 5 min. Cells were washed three times in 2% glucose. The yeast pellets were resuspended in uptake assay buffer (25 mM Tris-HCl 8.0,150 mM NaCl, 2% glucose) to a final concentration of 2 × 10^8 cells mL^–1. The uptake assay was initiated by combining 100 μL of prewarmed (30 °C) cells and 100 μL uptake assay buffer mixture: 25 mM Tris-HCl 8.0, 150 mM NaCl, 2% glucose, 200 nM [^3H] Inosine ([8-^3H] inosine; 20 Ci mmol^–1, American Radiolabeled Chemicals). Cells were removed onto a membrane filter at the appropriate times to generate the time course. After washing by vacuum filtration with 2 ml ice-cold 2% glucose, the radioactivity retained on the filter was incubated with 1 mL of ULTIMA GOLD scintillation fluid (Perkin Elmer, 77-15311). Counts were measured using a liquid scintillation analyzer (Perkin Elmer, Tri-Carb 5110TR).
For competition assays, the indicated nucleosides and nucleobase were added into the external uptake assay buffer (25 mM Tris-HCl 8.0, 150 mM NaCl, and 2% glucose) to a final concentration of 5 mM, and the transport reaction was stopped at 30 min. The reading of the competition assays was normalized against the one without a competitor, which had the uptake of radiolabeled inosine set as 100%. All uptake assays were performed at 30 °C and repeated three times. Error bars represent the s.d. The final result was analyzed in the GraphPad Prism 8 software ([…]).

A further assay deals with T4, PfENT1 mutant S49A (Plasmodium falciparum, UniProt Q8IDM6, S49A).
T4 construct: 10xHis (N); made in house; host or cells: Sf9 insect cells (baculovirus)
T4 sequence (Q8IDM6 1-422 S49A): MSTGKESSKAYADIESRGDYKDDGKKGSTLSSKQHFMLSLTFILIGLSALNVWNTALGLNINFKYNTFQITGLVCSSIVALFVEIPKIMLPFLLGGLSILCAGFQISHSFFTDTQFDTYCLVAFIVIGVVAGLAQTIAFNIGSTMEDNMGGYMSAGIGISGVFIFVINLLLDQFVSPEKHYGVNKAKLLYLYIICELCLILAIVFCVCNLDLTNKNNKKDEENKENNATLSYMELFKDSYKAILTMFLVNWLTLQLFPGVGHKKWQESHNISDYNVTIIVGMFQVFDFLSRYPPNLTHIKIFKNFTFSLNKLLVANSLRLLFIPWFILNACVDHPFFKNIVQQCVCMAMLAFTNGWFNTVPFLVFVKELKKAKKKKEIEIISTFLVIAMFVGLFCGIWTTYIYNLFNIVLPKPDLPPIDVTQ
The experiment in a line: ITC binding to PfENT1 mutant S49A. The settings on record: Fig. 3c. As for the experimental part: as §1, §2

T3 sequence (Q8IDM6 whole entry): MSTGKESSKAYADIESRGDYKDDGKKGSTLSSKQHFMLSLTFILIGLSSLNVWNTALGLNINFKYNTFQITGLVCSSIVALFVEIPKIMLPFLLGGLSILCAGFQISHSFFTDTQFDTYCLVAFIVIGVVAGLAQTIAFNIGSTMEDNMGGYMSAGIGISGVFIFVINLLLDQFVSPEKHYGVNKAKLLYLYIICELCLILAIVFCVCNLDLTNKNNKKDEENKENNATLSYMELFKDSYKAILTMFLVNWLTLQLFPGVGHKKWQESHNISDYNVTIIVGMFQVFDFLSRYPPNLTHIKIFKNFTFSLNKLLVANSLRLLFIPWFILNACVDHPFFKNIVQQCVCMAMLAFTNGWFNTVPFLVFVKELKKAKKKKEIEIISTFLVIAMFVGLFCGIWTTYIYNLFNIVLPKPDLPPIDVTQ

As to `OC[C@H]1O[C@@H](n2cnc3c(O)ncnc32)[C@H](O)[C@@H]1O` [Inosine, inosine], the “Uptake of [3H]-inosine (Percentage of PfENT1 WT)” value is listed as “lost the transport activity” at PfENT1 R291A and “abolished” at PfENT1 (competition by nonradioactive nucleoside/nucleobase 5 mM, 30 min, 30 °C, uptake without competitor set as 100%, Fig. 1c). For the same compound, the “binding affinity (Kd)” value at PfENT1 mutant R291A (ITC, Fig. 3c, mutant R291A, mean ± SD (n = 3)) is listed as “maintains inosine binding”; at PfENT1 mutant S49A, “complete abolishment”. Besides, the Kd is 46.7 µM on PfENT1 mutant R291A (Kd, Mean and Mean ± SD, source data Figure 3c, construct R291A); 53 µM and 56 µM and 31 µM at PfENT1 mutant R291A (Kd, N=3 (individual experiments), source data Figure 3c, construct R291A); 46.7 ± 13.6 µM at PfENT1 mutant R291A (binding affinity (Kd), ITC, Fig. 3c, mutant R291A, mean ± SD (n = 3)). The remaining activity at 5000 µM at PfENT1 (0.5 h, read-out: Uptake of [3H]-inosine (Percentage of PfENT1 WT), competition by nonradioactive nucleoside/nucleobase 5 mM, 30 min, 30 °C, uptake without competitor set as 100%, Fig. 1c) is 11%. In addition, the uptake of inosine on PfENT1 (time 1 (min), 3 independent experiments) is 0.8242 fmol per million cells and 1.048 fmol per million cells and 1.269 fmol per million cells; on PfENT1 (time 5 (min)), 1.492 fmol per million cells and 1.522 fmol per million cells and 1.615 fmol per million cells; on PfENT1 (time 10 (min)), 2.864 fmol per million cells and 2.823 fmol per million cells and 2.628 fmol per million cells; on PfENT1 (time 20 (min)) it was 4.048 fmol per million cells and 4.1747 fmol per million cells and 4.441 fmol per million cells; at PfENT1 (time 30 (min)), 5.946 fmol per million cells and 6.16 fmol per million cells and 6.198 fmol per million cells; at PfENT1 (time 45 (min)), 10.3307 fmol per million cells and 9.87 fmol per million cells and 9.474 fmol per million cells. The uptake of inosine at PfENT1 (time 60 (min)) was 11.051 fmol per million cells and 11.1951 fmol per million cells and 11.2042 fmol per million cells.
